US4727090A, “Process for preparing and therapeutical applications of the 2,4,6-triiodophenol” (Bislak, S.A., priority 1983, dated 1988)
Read-outs that look alike come from different tables or passages of the source.

Assays:
fat in the blood = test: Fat in the blood in cardiovascular patients (hypocholesterinemic action); type: in vivo; settings: 3rd month, 30 mg/day intramuscular
Experimental: (§1) Hereunder we expose the clinical results obtained after the administration during three months of the 2,4,6-triiodophenol in 200 cardiovascular patients.
(§2) Sick persons were divided in 4 groups; (1) 50 patients with cerebral vascular insufficiency, (2) 50 patients with coronary insufficiency, (3) 50 patients with hepatic insufficiency and (4) 50 patients with peripheral vascular insufficiency of the lower extremities. All these persons received an intramuscular administration, a dosage of 30 mg/day of 2,4,6-triiodophenol, carrying out controls at the first, second and third month of all angiohemodynamic parameters, supposing a total of 600 controls (150 per each group after the three months).

[1] = Effects by parenteral administration compared with classical antirheumatics; type: in vivo; settings: 1 mg/kg
waste (minute volume) = test: Waste / minute volume by echo-Doppler in cardiovascular patients (peripheral hyperemia); type: in vivo; settings: 30 mg/day intramuscular
Excerpt: (§3) The technology used to show the hemodynamic changes was of the non-invasivetype, as in this way experiments can be repeated and are completely innoxious for the patient. Of all the non-invasive methods of diagnosis we selected the most reliable of actual conditions, which is the method of ultrasounds (echo and Doppler's effects). The bidimensional echocardiography in real time, combined with pulsatile Doppler and the bidimensional vascular echography combined with pulsatile Doppler hemodynamic, are actually the two most reliable non-invasive techniques for the study of the anatomic changes and macroscopic hemodynamics with regard to the cardiovascular apparatus. That's why we used for the study of the clinical effects of the 2,4,6-triiodophenol an echo-Doppler trade mark ATL (Mark V), being the transmission frequency of 3 MHz, as well as a continuous Doppler trade mark SONICAID of 4 and 8 MHz.
(§4) Patients were divided in four statistically acceptable groups (50 in each group), comparing the results obtained with this medicament before, during and after the treatment.
(§5) Methodologically there are practiced echographical cuts in real time of the heart, big vases, supra-aortic trunks, abdominal aorta, portal and caval systems and iliac and femoral arteries, obtaining fluxmetric samples Doppler in all the mentioned cardiac cavities and blood vessels to study the sense of the flow, outflow (stream) or volume of flow and the hemodynamic features of the sanguineous flow.
as §1, §2

[2] = tested on: acetic acid induced pullings; test: Writhing syndrome test (acetic acid); type: in vivo, mice; settings: 10 mg/kg oral; for inhibition at 10 mg/kg: Mus musculus, po, read-out: % INHIB. (pullings)
Experimental: Irritant substance: acetic acid at 0.5% injected via intraperitoneal.
Foundation of the method consists in provoking a dolorous syndrome by pulling and torsion of the stomach and the hind legs of the animals.
These pullings or stretchings are calculated during a certain time, using it as the measure of the provoked ache.
Mice of about 22 g by weight were used, animals were left under abstinence during 24 hours before carrying out the test.
Mice were previously selected as to each individual response to the dolorous stimulus provoked by an intraperitoneal injection of 0.2 ml of an acetic acid aqueous solution at the 0.5%. Valid animals for realizing the test are those which respond within a margin of 15-35 pullings in about 5 to 15 minutes after the injection. The remaining animals are not useful.
Medication is realized via oral with the help of an esophageal cannula.
White lot: Administration of 0.1 ml of CMC 1% for each 10 g of corporal weight.
2,4,6-triiodophenol lot: Administration of 10 mg/kg of the product, suspended in CMC of 1%.
Aspirin-Lysin lot (Solusprin): Administration of 500 mg/kg aspirin, dissolved at 1%.
After medication, one has to wait 20 minutes for injecting 0.2 ml acetic acid of 0.5% via intraperitoneal, calculating the number of pullings during 5 minutes. […]
The test was carried out in 9 mice in each lot.

velocity of blood flow = test: Speed of flow by echo-Doppler in cardiovascular patients (fluidifying + hemodynamizing action); type: in vivo; settings: 30 mg/day intramuscular
Excerpt: as §3, §4, §5, §1, §2

[3] = Tolerability after three months administration in 200 cardiovascular patients; type: in vivo
Experimental: as §1, §2

vascular wall = test: Vascular wall distensibility by echo-Doppler in cardiovascular patients (antiatherosclerotic action); type: in vivo; settings: 30 mg/day intramuscular
Excerpt: as §3, §4, §5, §1, §2

cardiac contractility = test: Cardiac contractility in cardiovascular patients (inotropic effect); type: in vivo; settings: 30 mg/day intramuscular
Excerpt: as §3, §4, §5, §1, §2

SMILES: Oc1c(I)cc(I)cc1I [2,4,6-triiodophenol]
- Cholesterol, variation (fat in the blood): -15%
- Triglycerides, variation (fat in the blood): -12%
- Effects compared with aspirin and indomethacin at therapeutic dosages [1]: comparable and even higher
- Cardiac waste, variation (Δ %) (waste (minute volume); 1st month): +5%
- Cerebral minute volume, variation (Δ %) (waste (minute volume); 1st month): +23%
- Hepatic minute volume (venous), variation (Δ %) (waste (minute volume); 1st month): +24%
- Lower extremity minute volume, variation (Δ %) (waste (minute volume); 1st month): +10%
- Cardiac waste, variation (Δ %) (waste (minute volume); 2nd month): +6%
- Cerebral minute volume, variation (Δ %) (waste (minute volume); 2nd month): +27,6%
- Hepatic minute volume (venous), variation (Δ %) (waste (minute volume); 2nd month): +16%
- Lower extremity minute volume, variation (Δ %) (waste (minute volume); 2nd month): +24%
- Cardiac waste, variation (Δ %) (waste (minute volume); 3rd month): +11%
- Cerebral minute volume, variation (Δ %) (waste (minute volume); 3rd month): +34%
- Hepatic minute volume (venous), variation (Δ %) (waste (minute volume); 3rd month): +23%
- Lower extremity minute volume, variation (Δ %) (waste (minute volume); 3rd month): +30%
- Increase of volume of flow, cerebral (waste (minute volume); conclusions, three months): 34%
- Increase of volume of flow, hepatic (waste (minute volume); conclusions, three months): 23%
- Increase of volume of flow, lower member (waste (minute volume); conclusions, three months): 30%
- Increase of volume of flow, systemic circulatory minute (waste (minute volume); conclusions, three months): 11%
- Total No. pullings ([2]; 20'): 14
- Total No. pullings ([2]; 30'): 9
- Total No. pullings ([2]; 100'): 9
- inhibition at 10 mg/kg ([2]; 20'): 88.4%
- inhibition at 10 mg/kg ([2]; 30'): 83.9%
- inhibition at 10 mg/kg ([2]; 100'): 86.1%
- Speed of flow, abdominal aorta, variation (Δ %) (velocity of blood flow; 1st month): +3%
- Speed of flow, caval iliac artery, variation (Δ %) (velocity of blood flow; 1st month): +7%
- Speed of flow, portal carotid aorta, variation (Δ %) (velocity of blood flow; 1st month): +11%
- Speed of flow, portal system, variation (Δ %) (velocity of blood flow; 1st month): +16%
- Speed of flow, postcaval system, variation (Δ %) (velocity of blood flow; 1st month): +8%
- Speed of flow, thoracic aorta, variation (Δ %) (velocity of blood flow; 1st month): +2%
- Speed of flow, abdominal aorta, variation (Δ %) (velocity of blood flow; 2nd month): +5%
- Speed of flow, caval iliac artery, variation (Δ %) (velocity of blood flow; 2nd month): +11%
- Speed of flow, portal carotid aorta, variation (Δ %) (velocity of blood flow; 2nd month): +14%
- Speed of flow, portal system, variation (Δ %) (velocity of blood flow; 2nd month): +21%
- Speed of flow, postcaval system, variation (Δ %) (velocity of blood flow; 2nd month): +12%
- Speed of flow, thoracic aorta, variation (Δ %) (velocity of blood flow; 2nd month): +3%
- Speed of flow, abdominal aorta, variation (Δ %) (velocity of blood flow; 3rd month): +7%
- Speed of flow, average value (arteries), variation (Δ %) (velocity of blood flow; 3rd month): +11%
- Speed of flow, average value (veins), variation (Δ %) (velocity of blood flow; 3rd month): +17%
- Speed of flow, caval iliac artery, variation (Δ %) (velocity of blood flow; 3rd month): +14%
- Speed of flow, portal carotid aorta, variation (Δ %) (velocity of blood flow; 3rd month): +19%
- Speed of flow, portal system, variation (Δ %) (velocity of blood flow; 3rd month): +29%
- Speed of flow, postcaval system, variation (Δ %) (velocity of blood flow; 3rd month): +15%
- Speed of flow, thoracic aorta, variation (Δ %) (velocity of blood flow; 3rd month): +5%
- Increase of speed of the sanguineous flow in the arteries (velocity of blood flow; conclusions, three months): 11%
- Increase of speed of the sanguineous flow in the veins (velocity of blood flow; conclusions, three months): 17%
- Thyroid function ([3]; iodine concentration of the product): does not alter the thyroid function
- Toxic effect or secondary effects of clinical importance ([3]; three months administration, 30 mg/day intramuscular): does not produce any toxic effect or secondary effects of clinical importance in none of the patients
- Distensibility, abdominal aorta, variation (Δ %) (vascular wall; 2nd month): +29%
- Distensibility, caval iliac artery, variation (Δ %) (vascular wall; 2nd month): +28%
- Distensibility, portal carotid aorta, variation (Δ %) (vascular wall; 2nd month): +27%
- Distensibility, portal vein, variation (Δ %) (vascular wall; 2nd month): +29,5%
- Distensibility, post caval system, variation (Δ %) (vascular wall; 2nd month): +12%
- Distensibility, thoracic aorta, variation (Δ %) (vascular wall; 2nd month): +11%
- Distensibility, abdominal aorta, variation (Δ %) (vascular wall; 3rd month): +31%
- Distensibility, average value (arteries), variation (Δ %) (vascular wall; 3rd month): +26%
- Distensibility, average value (veins), variation (Δ %) (vascular wall; 3rd month): +24%
- Distensibility, caval iliac artery, variation (Δ %) (vascular wall; 3rd month): +29,5%
- Distensibility, portal carotid aorta, variation (Δ %) (vascular wall; 3rd month): +30%
- Distensibility, portal vein, variation (Δ %) (vascular wall; 3rd month): +32%
- Distensibility, post caval system, variation (Δ %) (vascular wall; 3rd month): +15%
- Distensibility, thoracic aorta, variation (Δ %) (vascular wall; 3rd month): +14%
- Improvement of the parietal dynamic of all arteries (vascular wall; conclusions, three months): 26%
- Improvement of the parietal dynamic of veins (vascular wall; conclusions, three months): 24%
- Distensibility, abdominal aorta, variation (Δ %) (vascular wall; first month): +18%
- Distensibility, caval iliac artery, variation (Δ %) (vascular wall; first month): +12%
- Distensibility, portal carotid aorta, variation (Δ %) (vascular wall; first month): +17%
- Distensibility, portal vein, variation (Δ %) (vascular wall; first month): +15%
- Distensibility, post caval system, variation (Δ %) (vascular wall; first month): +7%
- Distensibility, thoracic aorta, variation (Δ %) (vascular wall; first month): +7%
- Ejection fraction, variation (Δ %) (cardiac contractility; 1st month): -9,1%
- Ejection volume, variation (Δ %) (cardiac contractility; 1st month): -9%
- Telediastolic volume, variation (Δ %) (cardiac contractility; 1st month): -3%
- Telesystolic volume, variation (Δ %) (cardiac contractility; 1st month): +8%
- Ejection fraction, variation (Δ %) (cardiac contractility; 2nd month): -8,8%
- Ejection volume, variation (Δ %) (cardiac contractility; 2nd month): -8,4%
- Telediastolic volume, variation (Δ %) (cardiac contractility; 2nd month): -5%
- Telesystolic volume, variation (Δ %) (cardiac contractility; 2nd month): +11%
- Ejection fraction, variation (Δ %) (cardiac contractility; 3rd month): -8,6%
- Ejection volume, variation (Δ %) (cardiac contractility; 3rd month): -8%
- Telediastolic volume, variation (Δ %) (cardiac contractility; 3rd month): -6%
- Telesystolic volume, variation (Δ %) (cardiac contractility; 3rd month): +13%
